From patent US7427625B2, “Substituted thiatriazaacenaphthylene-6-carbonitrile kinase inhibitors” (Janssen Pharmaceutica, N.V., priority 2006, dated 2008)

Legend:
Format in all cases: biochemical
EGFR = biological target: T1, EGFR (Homo sapiens, UniProt P00533); assay: EGFR Kinase Assay; settings: for inhibition at 2 µM: test concentration of 2 μM, read-out: EGFR percent inhibition
T1 construct: The intracellular portion of EGFR started at nucleotide 2189 (corresponding to amino acid 667) and ended at the termination codon; made in house; host or cells: Sf9 insect cells (baculovirus)
T1 sequence (P00533 669-1210 limits assumed): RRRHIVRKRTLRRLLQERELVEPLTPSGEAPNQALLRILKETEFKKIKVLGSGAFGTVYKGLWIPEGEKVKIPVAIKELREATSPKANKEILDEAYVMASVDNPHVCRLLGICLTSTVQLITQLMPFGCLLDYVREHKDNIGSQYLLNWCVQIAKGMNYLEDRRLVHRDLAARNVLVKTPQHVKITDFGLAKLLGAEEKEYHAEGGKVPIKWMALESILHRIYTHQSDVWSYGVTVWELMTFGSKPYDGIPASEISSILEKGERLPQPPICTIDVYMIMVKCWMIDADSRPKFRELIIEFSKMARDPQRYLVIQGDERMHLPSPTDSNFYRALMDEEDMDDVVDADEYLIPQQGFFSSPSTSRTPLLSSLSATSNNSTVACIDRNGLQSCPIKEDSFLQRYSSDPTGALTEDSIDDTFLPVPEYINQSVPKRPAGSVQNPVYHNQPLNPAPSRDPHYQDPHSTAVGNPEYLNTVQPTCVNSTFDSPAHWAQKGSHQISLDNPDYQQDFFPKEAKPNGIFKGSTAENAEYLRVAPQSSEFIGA
Procedure, shortened: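 GST-fused EGFR intracellular domain (aa 667 to end), Sf9-expressed, phosphorylating biotinylated polyGluTyr with 5 μM ATP plus γ-33P ATP in Tris pH 8.0, MgCl2, vanadate, 1 mM DTT; 1 h, 30 °C, streptavidin Flashplate scintillation read. Triplicate 16-point half-log series from 200 uM; IC50 from % inhibition vs log concentration, else % inhibition at 2 μM.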

Lyn kinase = biological target: T2, Lyn kinase (Homo sapiens, UniProt P07948); assay: Lyn Kinase Assay; settings: for inhibition at 2 µM: test concentration of 2 μM, read-out: Lyn percent inhibition
T2 construct: purchased Upstate Biotechnology, Lake Placid, N.Y
T2 sequence (P07948 whole entry): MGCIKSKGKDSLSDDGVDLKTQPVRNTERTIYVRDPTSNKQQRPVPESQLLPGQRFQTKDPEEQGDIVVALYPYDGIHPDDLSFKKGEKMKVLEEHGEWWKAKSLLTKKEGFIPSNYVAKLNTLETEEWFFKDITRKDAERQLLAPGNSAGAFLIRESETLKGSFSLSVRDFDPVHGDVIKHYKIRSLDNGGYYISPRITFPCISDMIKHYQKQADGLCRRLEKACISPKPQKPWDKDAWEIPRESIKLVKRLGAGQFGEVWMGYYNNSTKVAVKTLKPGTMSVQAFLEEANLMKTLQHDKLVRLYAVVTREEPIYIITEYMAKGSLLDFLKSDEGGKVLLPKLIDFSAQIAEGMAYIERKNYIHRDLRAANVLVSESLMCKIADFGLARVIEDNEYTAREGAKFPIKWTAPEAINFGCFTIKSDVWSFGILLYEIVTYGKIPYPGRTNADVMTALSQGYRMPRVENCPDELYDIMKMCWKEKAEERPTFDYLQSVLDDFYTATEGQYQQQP
Experimental: A mixture of a 10× kinase buffer (500 mM MOPS at pH 7.5, 1 mM EGTA, 1 mM Sodium Vanadate, 1% β-mercaptoethanol and 100 mM Magnesium Acetate), ATP (5 μM final from a 10 mM stock), polyGluTyr (0.1 mg/mL final from a 1 mg/mL stock), γ-^33P ATP (10 μCi/μL stock) and water (20 μL/well) was added to each well of a Streptavidin Flashplate.
Test compound in 100% DMSO (0.5 μL) was added to the appropriate wells. Diluted Lyn kinase (human) (Upstate Biotechnology, Lake Placid, N.Y.) (diluted in a buffer consisting of 50 mM Tris at pH 7.5, 0.1 mM EGTA, Sodium Vanadate (0.1 mM), β-mercaptoethanol (0.1%) and 1 mg/mL bovine serum albumin) (2.5 μL) was added to the wells to initiate the reactions.
The reaction plates were incubated at 30° C. for 40 min. The reaction was terminated by the addition of a 3% phosphoric acid solution (5 μL). The reaction product (10 μL) was spotted onto a P30 filtermat and washed for 5 minutes in phosphoric acid (75 mM). The wash sequence was repeated two more times, followed with one final wash in methanol. The plates were then dried, sealed and read on the TopCount scintillation counter after adding 30 μL scintillation fluid.
Percent inhibition was derived according to the procedure described in Example 2. For those compounds without an IC50, the percent inhibition results are shown at a test concentration of 2 μM.

HER-2 = biological target: T3, HER-2 (Homo sapiens, UniProt P04626); assay: HER-2 Kinase Assay
T3 construct: the nucleotides encoding amino acids 679 to 1255 of HER-2; purchased Proqinase (Freiburg, Germany)
T3 sequence (P04626 679-1255): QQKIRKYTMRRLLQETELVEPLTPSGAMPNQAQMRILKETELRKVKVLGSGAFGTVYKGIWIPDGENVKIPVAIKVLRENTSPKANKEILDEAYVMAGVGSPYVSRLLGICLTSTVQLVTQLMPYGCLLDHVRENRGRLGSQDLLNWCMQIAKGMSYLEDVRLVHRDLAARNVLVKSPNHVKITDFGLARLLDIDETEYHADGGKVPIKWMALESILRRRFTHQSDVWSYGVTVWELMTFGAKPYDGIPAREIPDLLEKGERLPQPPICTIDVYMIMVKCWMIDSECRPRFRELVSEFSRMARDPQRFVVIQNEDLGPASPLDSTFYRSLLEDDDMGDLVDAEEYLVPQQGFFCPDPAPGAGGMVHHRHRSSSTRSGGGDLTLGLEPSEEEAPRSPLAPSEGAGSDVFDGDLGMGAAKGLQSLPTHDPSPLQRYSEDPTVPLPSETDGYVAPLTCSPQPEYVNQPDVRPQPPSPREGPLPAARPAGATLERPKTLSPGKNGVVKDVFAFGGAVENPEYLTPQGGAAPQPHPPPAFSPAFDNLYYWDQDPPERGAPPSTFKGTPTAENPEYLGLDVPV
Procedure, shortened: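 GST-HIS6-thrombin fusion of HER-2 residues 679–1255, assayed with biotinylated polyGluTyr, 1 μM ATP plus γ-33P-ATP, Mg2+, Mn2+ and vanadate in Hepes pH 7.5 for 1 h at 30 °C. Incorporation read by streptavidin Flashplate scintillation counting; IC50 values, or % inhibition at 1 μM.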

Compound | inhibition at 2 µM (EGFR) [%] | inhibition at 2 µM (Lyn kinase) [%] | IC50 (HER-2) [µM] | IC50 (EGFR) [nM] | IC50 (Lyn kinase) [nM]
CCOC(=O)c1sc2nc(N3CCOCC3)c(C#N)c3c2c1NC(=O)N3c1c(Cl)ccc2c1OCO2 [Cpd 7, 5-(5-chloro-benzo[1,3]dioxol-4-yl)-6-cyano-7-morpholin-4-yl-4-oxo-4,5-dihydro-3H-1-thia-3,5,8-triaza-acenaphthylene-2-carboxylic acid ethyl ester] | -5 | 43 | > 100 | – | –
N#Cc1c(N2CCOCC2)nc2sc(C(=O)Nc3ccc(CN4CCOCC4)cc3)c3c2c1N(c1c(Cl)ccc2c1OCO2)C(=O)N3 [Cpd 8, 5-(5-chloro-benzo[1,3]dioxol-4-yl)-6-cyano-7-morpholin-4-yl-4-oxo-4,5-dihydro-3H-1-thia-3,5,8-triaza-acenaphthylene-2-carboxylic acid (4-morpholin-4-ylmethyl-phenyl)-amide] | -6 | 40 | ~100 | – | –
COc1cc(N2C(=O)Nc3c(C(=O)Nc4ccc(CCN5CCOCC5)cc4)sc4ncc(C#N)c2c34)c(Cl)cc1Cl [Cpd 6, 6-cyano-5-(2,4-dichloro-5-methoxy-phenyl)-4-oxo-4,5-dihydro-3H-1-thia-3,5,8-triaza-acenaphthylene-2-carboxylic acid [4-(2-morpholin-4-yl-ethyl)-phenyl]-amide] | 7 | 75 | ~100 | – | –
COC1CCN(Cc2ccc(NC(=O)c3sc4ncc(C#N)c5c4c3NC(=O)N5c3c(Cl)ccc4c3OCO4)cc2)CC1 [Cpd 18, 5-(5-chloro-benzo[1,3]dioxol-4-yl)-6-cyano-4-oxo-4,5-dihydro-3H-1-thia-3,5,8-triaza-acenaphthylene-2-carboxylic acid [4-(4-methoxy-piperidin-1-ylmethyl)-phenyl]-amide] | 38 | 86 | 1.23 | – | –
CN1CCC(NC(=O)c2sc3ncc(C#N)c4c3c2NC(=O)N4c2c(Cl)ccc3c2OCO3)CC1 [Cpd 10, 5-(5-chloro-benzo[1,3]dioxol-4-yl)-6-cyano-4-oxo-4,5-dihydro-3H-1-thia-3,5,8-triaza-acenaphthylene-2-carboxylic acid (1-methyl-piperidin-4-yl)-amide] | – | – | 7.16 | 3960 | 268
CN1CCN(CCc2ccc(NC(=O)c3sc4ncc(C#N)c5c4c3NC(=O)N5c3c(Cl)ccc4c3OCO4)cc2)CC1 [Cpd 12, 5-(5-chloro-benzo[1,3]dioxol-4-yl)-6-cyano-4-oxo-4,5-dihydro-3H-1-thia-3,5,8-triaza-acenaphthylene-2-carboxylic acid {4-[2-(4-methyl-piperazin-1-yl)-ethyl]-phenyl}-amide] | – | 93 | 5.55 | 2700 | –
N#Cc1cnc2sc(C(=O)Nc3ccc(CCN4CCCCC4)cc3)c3c2c1N(c1c(Cl)ccc2c1OCO2)C(=O)N3 [Cpd 11, 5-(5-chloro-benzo[1,3]dioxol-4-yl)-6-cyano-4-oxo-4,5-dihydro-3H-1-thia-3,5,8-triaza-acenaphthylene-2-carboxylic acid [4-(2-piperidin-1-yl-ethyl)-phenyl]-amide] | – | – | 2.91 | 1600 | 113
N#Cc1cnc2sc(C(=O)Nc3ccc(CCN4CCOCC4)cc3)c3c2c1N(c1c(Cl)ccc2c1OCO2)C(=O)N3 [Cpd 13, 5-(5-chloro-benzo[1,3]dioxol-4-yl)-6-cyano-4-oxo-4,5-dihydro-3H-1-thia-3,5,8-triaza-acenaphthylene-2-carboxylic acid [4-(2-morpholin-4-yl-ethyl)-phenyl]-amide] | 23 | 76 | > 1 | – | –
Cc1nc2sc(C(=O)Nc3ccc(CN4CCOCC4)cc3)c3c2c(c1C#N)N(c1c(Cl)ccc2c1OCO2)C(=O)N3 [Cpd 9, 5-(5-chloro-benzo[1,3]dioxol-4-yl)-6-cyano-7-methyl-4-oxo-4,5-dihydro-3H-1-thia-3,5,8-triaza-acenaphthylene-2-carboxylic acid (4-morpholin-4-ylmethyl-phenyl)-amide] | 14 | 58 | > 10 | – | –
COc1cc(N2C(=O)Nc3c(C(=O)Nc4ccc(CN5CCOCC5)cc4)sc4ncc(C#N)c2c34)c(Cl)cc1Cl [Cpd 5, 6-cyano-5-(2,4-dichloro-5-methoxy-phenyl)-4-oxo-4,5-dihydro-3H-1-thia-3,5,8-triaza-acenaphthylene-2-carboxylic acid (4-morpholin-4-ylmethyl-phenyl)-amide] | 1 | 83 | > 10 | – | –
N#Cc1cnc2sc(C(=O)Nc3ccc(CN4CCOCC4)cc3)c3c2c1N(c1c(Cl)ccc2c1OCO2)C(=O)N3 [Cpd 4, 5-(5-chloro-benzo[1,3]dioxol-4-yl)-6-cyano-4-oxo-4,5-dihydro-3H-1-thia-3,5,8-triaza-acenaphthylene-2-carboxylic acid (4-morpholin-4-ylmethyl-phenyl)-amide] | 36 | – | 5.35 | – | 477
